{
  "source": "the METLIN SMRT retention time set (Domingo-Almenara et al. 2019)",
  "data": [
    {"assay": "gradient 5% acetonitrile 3 min, to 50% in 2 min, to 85% in 15 min, held 3 min, 100 µL/min", "conditions": "column: Zorbax Extend-C18 2.1 x 50 mm; eluents: water / acetonitrile, 0.1% formic acid", "method_in_brief": "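Each retention time is based on an adduct peak selected computationally and verified by manual inspection. Measurements used HPLC–quadrupole time-of-flight mass spectrometry in positive and negative ionization mode on mixtures of ~100 pure standards. Chromatography ran on a Zorbax Extend-C18 column (2.1 × 50 mm, 1.8 μm) at 100 μL/min with water and acetonitrile, each containing 0.1% formic acid, and dead and dwell volumes of 40 μL and 900 μL.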", "units": {"RP-LC retention time": "s"}, "values": [
      {"smiles": "Cc1noc2nc(C)n(CC(=O)Nc3ccccc3C(F)(F)F)c(=O)c12", "RP-LC retention time": 779},
      {"smiles": "COc1ccccc1-c1nc(Cn2nnc(-c3nc(-c4ccc5c(c4)OCO5)no3)c2C)c(C)o1", "RP-LC retention time": 700},
      {"smiles": "Cc1ccnc(NS(=O)(=O)c2ccc(NC(=O)c3cn(C)nc3C)cc2)n1", "RP-LC retention time": 589},
      {"smiles": "Cc1ccc(-c2noc(Cn3c(=O)n(-c4cccc(C)c4)c(=O)c4sccc43)n2)cc1", "RP-LC retention time": 1070},
      {"smiles": "CN(Cc1ccoc1)C(=O)Nc1ccc(F)cc1", "RP-LC retention time": 797},
      {"smiles": "Cc1cccc(CN2CCN(CC(=O)N3CCN(Cc4ccccc4)CC3)C(=O)C2=O)c1", "RP-LC retention time": 608},
      {"smiles": "CCC(C)NC(=O)COc1nc(C)nc2onc(-c3cccc(F)c3)c12", "note": "(configuration not stated)", "RP-LC retention time": 932},
      {"smiles": "COc1ccc2[nH]cc(CCNC(=O)CCCn3c4ccccc4c4cnn(C)c(=O)c43)c2c1", "RP-LC retention time": 795},
      {"smiles": "Cn1cccc1CN(C(=O)C1(c2ccccc2)CCOCC1)C1CC1", "RP-LC retention time": 843},
      {"smiles": "Cc1cccc(S(=O)(=O)N2CC3CN(C(=O)c4ccco4)CC(C2)O3)c1", "RP-LC retention time": 933},
      {"smiles": "COc1ccc(-c2noc(C3CCCN3C(=O)c3ccc(NC(C)=O)cc3)n2)cc1", "note": "(configuration not stated)", "RP-LC retention time": 752},
      {"smiles": "Cc1ccc(C)c(-n2ccn(Cc3nc(-c4ccccc4C)no3)c(=O)c2=O)c1", "RP-LC retention time": 953},
      {"smiles": "O=C(Cn1c(=O)c2cccn2c2ccc(F)cc21)NCCN1CCCCCC1", "RP-LC retention time": 623},
      {"smiles": "CN(C)S(=O)(=O)c1ccc2c(c1)N(CC(=O)Nc1ccc3c(c1)OCO3)C(=O)C1CCCCN21", "note": "(configuration not stated)", "RP-LC retention time": 877},
      {"smiles": "CC(NC(=O)c1c(O)c2cccnc2n(-c2cccc(F)c2)c1=O)c1ccccc1", "note": "(configuration not stated)", "RP-LC retention time": 1230},
      {"smiles": "Cc1ccccc1NC(=O)N1CCN(c2nc3ccccc3nc2C(F)(F)F)CC1", "RP-LC retention time": 1070},
      {"smiles": "COCCNc1oc(-c2ccc([N+](=O)[O-])cc2)nc1C#N", "RP-LC retention time": 766},
      {"smiles": "CC(C)CN1CCn2cc(S(=O)(=O)NCc3cc(F)cc(F)c3)cc2C1=O", "RP-LC retention time": 808},
      {"smiles": "CC(C)c1ccc(OCC(=O)Nc2cnn(C)c(=O)c2N2CCOCC2)cc1", "RP-LC retention time": 952},
      {"smiles": "COc1cccc(S(=O)(=O)N2CCC(N3C[C@H](OC)[C@@H]3c3ccncc3)CC2)c1", "RP-LC retention time": 625},
      {"smiles": "COc1ccc(-c2nn3c(-c4cc(C(C)C)[nH]n4)nnc3s2)c(OC)c1", "RP-LC retention time": 915},
      {"smiles": "COc1ccc(-c2cc3n(n2)CCCN(C(=O)NCc2ccccc2)C3)cc1OC", "RP-LC retention time": 929},
      {"smiles": "CC(C)n1ncc(NC(=O)c2ccc(F)cc2)c(N2CCOCC2)c1=O", "RP-LC retention time": 883},
      {"smiles": "CC(=O)c1ccc(S(=O)(=O)N2CCc3nc[nH]c3C2)cc1", "RP-LC retention time": 585},
      {"smiles": "CCCN1CCN(CCCNC(=O)Cn2c3ccccc3c3cnn(C)c(=O)c32)CC1", "RP-LC retention time": 560},
      {"smiles": "c1cc(-n2nnc3cnccc32)ccn1", "RP-LC retention time": 637},
      {"smiles": "CCc1ccccc1S(=O)(=O)N1CCC(C(=O)NCc2csc(-c3cccs3)n2)CC1", "RP-LC retention time": 950},
      {"smiles": "FC(F)(F)c1cccc(N2CCN(c3ncnc4sccc34)CC2)c1", "RP-LC retention time": 987},
      {"smiles": "CN(C)c1ccc(CNC(=O)c2ccc3c(c2)NC(=O)C2CCCCN32)cc1", "note": "(configuration not stated)", "RP-LC retention time": 617},
      {"smiles": "O=C(NCC(F)(F)F)C1CN(C(=O)c2ccc(F)c(F)c2)C1", "RP-LC retention time": 667},
      {"smiles": "O=C(NCCN1CCCCC1)c1ccc(I)cc1", "RP-LC retention time": 678},
      {"smiles": "O=c1cc(N2CCOCC2)oc2c1ccc1ccccc12", "RP-LC retention time": 882},
      {"smiles": "Cc1nnsc1C(=O)Nc1nnc(-c2ccnn2C)o1", "RP-LC retention time": 665},
      {"smiles": "CCOC(=O)c1c(S(=O)(=O)N2CCC(C(=O)Nc3ccccc3C)CC2)c(C)n(CC)c1C", "RP-LC retention time": 874},
      {"smiles": "COc1cc(OC)cc(C(=O)N2CCc3cc(-c4csc(C)n4)ccc32)c1", "RP-LC retention time": 977},
      {"smiles": "Cc1ccc(N(C)S(=O)(=O)c2cc(-c3cc(C(F)(F)F)on3)sc2C)cc1", "RP-LC retention time": 1320},
      {"smiles": "Cc1cc(C)c(S(=O)(=O)NC(C)Cn2cncn2)c(C)c1", "note": "(configuration not stated)", "RP-LC retention time": 664},
      {"smiles": "Cc1oc2ccn(Cc3cccc(F)c3)c(=O)c2c1C(=O)NC1CCCCCC1", "RP-LC retention time": 1270},
      {"smiles": "Cc1nc(-c2ccc(C(=O)NC(C)C)cc2)no1", "RP-LC retention time": 693},
      {"smiles": "Cc1ccc(NC(=O)C2CCN(S(=O)(=O)c3cn(C(C)C)cn3)CC2)cc1Cl", "RP-LC retention time": 883},
      {"smiles": "COc1cccc(C(=O)N2CCC(c3cc(N)on3)CC2)c1", "RP-LC retention time": 653},
      {"smiles": "CCNS(=O)(=O)c1cccnc1Nc1ccc(F)cc1", "RP-LC retention time": 942},
      {"smiles": "COCCNC(=O)c1sc2c(cnc3cc4c(cc32)OCO4)c1-c1ccccc1", "RP-LC retention time": 732},
      {"smiles": "NC(=O)c1ccccc1NC(=O)C1CN(c2nc3c(F)cccc3s2)C1", "RP-LC retention time": 706},
      {"smiles": "Cc1noc(-c2cc(=O)n(CC(=O)Nc3ccccc3Cl)c3ccccc23)n1", "RP-LC retention time": 900},
      {"smiles": "CCOc1ccc(-n2c(=O)c3sccc3n(Cc3nc(-c4ccccc4OCC)no3)c2=O)cc1", "RP-LC retention time": 1020},
      {"smiles": "O=C(CN(CC1CCCO1)C(=O)c1cccc(Br)c1)N1CCNCC1", "note": "(configuration not stated)", "RP-LC retention time": 602},
      {"smiles": "CC(=O)Cc1nsc(NC(=O)c2ccc(-c3cccc(Cl)c3)o2)n1", "RP-LC retention time": 866},
      {"smiles": "Cc1cc(-n2c(C)nc3ccccc3c2=O)ccc1NC(=O)C(C)Oc1cccc(Cl)c1", "note": "(configuration not stated)", "RP-LC retention time": 935},
      {"smiles": "COc1ccc(C2CC(=O)N(c3ccc(F)c(Cl)c3)C(=O)C2)cc1OC", "RP-LC retention time": 915},
      {"smiles": "CCNC(=O)Nc1cccnc1N1CCCCC1", "RP-LC retention time": 577},
      {"smiles": "Cc1cc(=O)n(CC(=O)Nc2ccc(F)cc2)c(N)n1", "RP-LC retention time": 592},
      {"smiles": "Fc1cccc(-c2noc(-c3ccc(N4CCN(C5CCCCC5)CC4)nc3)n2)c1", "RP-LC retention time": 814},
      {"smiles": "COc1ccccc1N1CCN(C(=O)c2ccc(OCc3nc(C4CC4)cs3)cc2)CC1", "RP-LC retention time": 911},
      {"smiles": "Fc1ccc(-c2nc(-c3cn(-c4cccc(F)c4)nn3)no2)cc1", "RP-LC retention time": 1080},
      {"smiles": "Cc1cccc(NC(=O)N2CCN(c3nc4ccccc4nc3C(F)(F)F)CC2)c1", "RP-LC retention time": 1120},
      {"smiles": "COc1ccc(C(=O)N2CCC3(CC2)N=C(c2ccc(Cl)cc2)NO3)cc1OC", "RP-LC retention time": 784},
      {"smiles": "CCCNC(=O)C1CCCN(c2nc(C)nc3onc(C)c23)C1", "note": "(configuration not stated)", "RP-LC retention time": 690},
      {"smiles": "CCCN1CCCCc2cc(C(=O)NC(C)CC)sc21", "note": "(configuration not stated)", "RP-LC retention time": 1100},
      {"smiles": "COc1ccc(C2CCCN2C(=O)c2c(C)noc2C)cc1", "note": "(configuration not stated)", "RP-LC retention time": 746},
      {"smiles": "CCN1CCN(CCCNC(=O)C2CCCN(c3nnc(-n4cccc4)s3)C2)CC1", "note": "(configuration not stated)", "RP-LC retention time": 572},
      {"smiles": "CCS(=O)(=O)N1CC(=O)N(c2ccc(Cl)cc2)C(C)(C(=O)NC2CCCCC2)C1", "note": "(configuration not stated)", "RP-LC retention time": 882},
      {"smiles": "Cc1cccc(NC(=O)c2cn(CC(=O)NC3CCCC3)c3nc(C)ccc3c2=O)c1", "RP-LC retention time": 996},
      {"smiles": "O=C(CCc1c(-c2ccccc2)nc2ccccn12)Nc1ccc(F)cc1", "RP-LC retention time": 674},
      {"smiles": "COc1ccc(-n2ccn3cc(-c4cccs4)nc3c2=O)cc1Cl", "RP-LC retention time": 818},
      {"smiles": "Cc1ccccc1Cn1cc(CCC(=O)NCCN2CCOCC2)c2ccccc21", "RP-LC retention time": 639},
      {"smiles": "CC1=C(c2ccc(C)cc2)S(=O)(=O)N=C1N1CCCN(C(=O)C2CCCO2)CC1", "note": "(configuration not stated)", "RP-LC retention time": 733}
    ]}
  ]
}
